The values that follow come from US11925656B2, “Biological total joint replacement” (priority 2014, dated 2024).

One experiment has as its system MMP-13. Description: MMP-13 in synovium by ELISA, rabbit surgically induced knee arthritis. Format: in vivo. As to conditions: vs untreated control, not statistically significant. An excerpt: (§1) The study was approved by the Institutional Animal Care and Use Committee (IACUC) of Thomas D. Morris, Inc. 28 New Zeeland White rabbits were selected for the study. Six such were randomly assigned to one of four groups; prophylactic cyanidin-3-glycoside (C3G)(referred to figures as Cl 1-42), prophylactic protocatechuic acid (PCA)(referred to in figures as PCA 1-42), therapeutic C3G (referred to in figures as Cl 42-70), and therapeutic PCA (referred to in figures as PCA 42-70). There were four controls, two each to the prophylactic and therapeutic groups.
(§2) The prophylactic groups were given PROC3G™ by Chromadex™ at a dose of 30 mg/kg of body weight of either C3G or PCA by mouth, 7 times per week for 42 days. The therapeutic groups' treatment was initiated on day 42 with a daily dose of PROC3G™ by Chromadex™ 7 times per week for 4 weeks. The dose of 30 mg of cyanidin-3-glucoside per kg of body weight calculates to be 0.177 millimoles per kg body weight. The dose of PCA was the same in terms of millimoles per kg body weight.
(§3) The experimental rabbits underwent surgery with an intent to create a severe degenerative arthritis by cutting the medial collateral ligament, the anterior cruciate ligament and removing the medial meniscus. A partial thickness laceration was made longitudinally on the lateral femoral condyle for future assessment of potential for repair. The surgery was performed by two licensed veterinarians. One surgeon was very experienced. The other surgeon was a recent graduate.
At necropsy, the synovial fluid was harvested percutaneously and upon arthrotomy. The synovium was harvested from posterior compartment. The patella and adjacent synovium was procured as a separate specimen as was the medial and lateral condyle.
The synovial fluid and half of the synovium was frozen and sent to BioBoston Laboratory for chemical analysis. The other half of the synovium and bone was sent to McClinchery Histology in Stockbridge, Mich. for histological preparation and staining. Patellar slides were sent to BioBoston Contract Laboratories for histochemical staining and ICRS grading. Sample slides were examined for Lubricin at Myron Spector laboratory.
Synovial Tissue (Synovium)—Detected by ELISA

Another experiment has as its system IL-1 beta. As to the kind of experiment: IL-1 beta in synovium by ELISA, rabbit arthritis model. It counts as in vivo. As to conditions: therapeutic groups, oral days 42-70, vs control.
Text: as §1
The prophylactic groups were given PROC3G™ by Chromadex™ at a dose of 30 mg/kg of body weight of either C3G or PCA by mouth, 7 times per week for 42 days. The therapeutic groups' treatment was initiated on day 42 with a daily dose of PROC3G™ by Chromadex™ 7 times per week for 4 weeks. The dose of 30 mg of cyanidin-3-glucoside per kg of body weight calculates to be 0.177 millimoles per kg body weight. The dose of PCA was the same in terms of millimoles per kg body weight. […]
Interleukin-1 beta (IL-1p) also known as catabolic, is a cytokine protein. […] Increased production of IL-1B causes a number of different auto-inflammatory syndromes. • Synovial Fluid—Detected by ELISA • Levels of IL-1 beta were decreased in all groups. See FIG. 2A. • Synovial Tissue (Synovium)—Detected by ELISA
On the technique in general: In an ELISA, binding on a coated surface is turned into a signal by an enzyme label.

A further experiment relates to ADAMTS-5 gene expression. As to the kind of experiment: ADAMTS-5 gene expression in synovium by real-time PCR, rabbit arthritis model. Format: in vivo. As to conditions: therapeutic groups, oral days 42-70, vs control.
Text: as §1, §2
(§4) The experimental rabbits underwent surgery with an intent to create a severe degenerative arthritis by cutting the medial collateral ligament, the anterior cruciate ligament and removing the medial meniscus. […]
Synovial Tissue (Synovium)—Gene Expression Level Detected by Real-Time PCR

The subject of experiment [1] is patellar articular cartilage. Description: ICRS histological visual scale scoring of patellar cartilage, rabbit arthritis model. It counts as in vivo. As to conditions: prophylactic, minimum of 30 mg/kilo gram body weight by oral route.
Text: International Cartilage Repair Society (ICRS) criteria are described for example in Hoemann, et al., (cited on Applicant's IDS), herein incorporated by reference.
as §1, §2, §4

The next experiment deals with IGF-1. As to the kind of experiment: IGF-1 in plasma, rabbit arthritis model. It counts as in vivo. As to conditions: for IGF-1 in the plasma: control group 25 PG/ML.
Text: as §1, §2, §3
Blood testing was performed prior to necropsy on C3G, PCA, glucose, MMP-3 and IGF-1 to assess any systemic effects.

Experiment [2] deals with catabolic cytokine environment. Description: Cytokine environment in surgically created arthritic knee. It counts as in vivo. As to conditions: rabbits, either oral or intraarticular route.
For experiment [3] the following is noted: more powerful than vitamin E; cited from earlier work.
The subject of a further experiment is human osteoblasts. As to conditions: in vitro, dose related; cited from earlier work.

Consider `O=C(O)c1ccc(O)c(O)c1` [PCA, Protocatechuic acid (3,4-dihydroxybenzoic acid)], for which the “MMP-13 levels in synovium” value in the experiment with MMP-13 (prophylactic groups, oral 7 times per week days 1-42 (C3G 30 mg/kg, PCA 26.4 mg/kg)) is listed as “very slightly decreased”; in the experiment on MMP-13 (therapeutic groups, oral 7 times per week days 42-70 (C3G 30 mg/kg, PCA 26.4 mg/kg)), “increased slightly”. Further, the “levels of IL-1 beta in synovium” value with IL-1 beta was “decreased”. Also, the “ADAMTS-5 gene expression in synovium” value in the experiment with ADAMTS-5 gene expression is listed as “decreased”. For the same compound, the articular cartilage cells entry in experiment [1] (compared to the controls) was “unchanged in nature and spacing”. In addition, the subchondral bone structure entry in experiment [1] (without sclerosis or osteophyte formation) is “remained normal in structure”. Besides, the “IGF-1 in the plasma, change vs control” value in the experiment with IGF-1 (prophylactic group, oral days 1-42, only group with an increase) is “increased”. The “IGF-1 in the plasma” value is 43.0 pg/mL in the experiment on IGF-1 (prophylactic groups, oral days 1-42) and 29.0 pg/mL in the experiment with IGF-1 (therapeutic groups, oral days 42-70). Moreover, the “catabolic cytokine environment in a surgically created arthritic knee” value in experiment [2] was “reversing”. Further, the “antioxidant power relative to vitamin E” value in experiment [3] is 10 ×. Also, the “bone making markers in human osteoblasts” value in the experiment with human osteoblasts is listed as “produce bone making markers”.
